Reference: PMC4279406, “Simultaneous targeting of PI3Kδ and a PI3Kδ-dependent MEK1/2-Erk1/2 pathway for therapy in pediatric B-cell acute lymphoblastic leukemia” (Oncotarget, 2014)

Columns and labels:
[1] = tested on: primary non B-ALL leukemia cells; assay: Viability of primary mononuclear cells from pediatric patients (CCK-8); assay type: cell-based, human; details: 72 h, 1/7 specimens
Excerpt: (§1) Figure 3 PI3Kδ inhibition led to blockade of B cell leukemia cells proliferation via induction of cell cycle arrest and apoptosis Raji cells treated with X-370 for indicated times and at serial diluted concentrations were subjected to Annexin V-FITC/PI staining (A) and PI staining (B) and FACS analysis to show cell apoptosis and cell cycle distribution respectively. (C) X-370 inhibited proliferation of human leukemia primary cells. Freshly isolated human primary mononuclear cells from bone marrow samples of patients were treated with X-370 for 72 h and cell viability was assayed using CCK-8 assay. IC50s of each sample were plotted where 10 μM was assigned to specimens with IC50 >10 μM. Each symbol represents an individual patient sample. […]
(§2) Cell viability was assessed using Cell Counting Kit (CCK-8, Dojindo, Japan) following the manufacturer's protocol and OD values were measured with a Spectramax M5 plate reader (Molecular Devices, Sunnyvale, CA)[45].
(§3) Bone marrow was obtained from patients after provision of informed consent using guidelines approved by the Committee on the Use of Human Subjects in Research at Shanghai Jiaotong University or Shanghai Fudan University under a protocol approved by the Review Board. […] Cell viability and phosphorylated Akt and Erk1/2 were then detected.

[2] = tested on: primary B-ALL cells; assay: as above; assay type: cell-based, human; details: 72 h, 8/13 specimens
Excerpt: as §1, §2, §3

non B-ALL specimens sensitive with IC50<1 μM [1]: 14%
SMILES: O=C(N1CCCC1)N1CCC(n2cnc3c(-n4c(C(F)F)nc5ccccc54)nc(N4CCOCC4)nc32)CC1 [X-370]
B-ALL specimens sensitive with IC50<1 μM [2]: 61%
